According to publication PMC9135731 (Communications Biology, 2022):

How the values were obtained:
[1] = biological target: T1, AviM (Streptomyces viridochromogenes, UniProt O05170); test: LC-MS detection of orsellinic acid product; assay type: biochemical; conditions: 50 uM enzyme, 10 mM MgCl2, pH 7.4, 25 °C, with CoA and Sfp
T1 construct: expressed in E. coli BAP1 (sfp), phosphopantetheinylated with CoA and Sfp before assay

[2] = biological target: the molecule itself; test: SEC; Superdex 200/Superose 6 gel filtration column, 150 mM NaCl, 10 mM Tris pH 7.5, 4 °C

T1 sequence (O05170 entry or part of it): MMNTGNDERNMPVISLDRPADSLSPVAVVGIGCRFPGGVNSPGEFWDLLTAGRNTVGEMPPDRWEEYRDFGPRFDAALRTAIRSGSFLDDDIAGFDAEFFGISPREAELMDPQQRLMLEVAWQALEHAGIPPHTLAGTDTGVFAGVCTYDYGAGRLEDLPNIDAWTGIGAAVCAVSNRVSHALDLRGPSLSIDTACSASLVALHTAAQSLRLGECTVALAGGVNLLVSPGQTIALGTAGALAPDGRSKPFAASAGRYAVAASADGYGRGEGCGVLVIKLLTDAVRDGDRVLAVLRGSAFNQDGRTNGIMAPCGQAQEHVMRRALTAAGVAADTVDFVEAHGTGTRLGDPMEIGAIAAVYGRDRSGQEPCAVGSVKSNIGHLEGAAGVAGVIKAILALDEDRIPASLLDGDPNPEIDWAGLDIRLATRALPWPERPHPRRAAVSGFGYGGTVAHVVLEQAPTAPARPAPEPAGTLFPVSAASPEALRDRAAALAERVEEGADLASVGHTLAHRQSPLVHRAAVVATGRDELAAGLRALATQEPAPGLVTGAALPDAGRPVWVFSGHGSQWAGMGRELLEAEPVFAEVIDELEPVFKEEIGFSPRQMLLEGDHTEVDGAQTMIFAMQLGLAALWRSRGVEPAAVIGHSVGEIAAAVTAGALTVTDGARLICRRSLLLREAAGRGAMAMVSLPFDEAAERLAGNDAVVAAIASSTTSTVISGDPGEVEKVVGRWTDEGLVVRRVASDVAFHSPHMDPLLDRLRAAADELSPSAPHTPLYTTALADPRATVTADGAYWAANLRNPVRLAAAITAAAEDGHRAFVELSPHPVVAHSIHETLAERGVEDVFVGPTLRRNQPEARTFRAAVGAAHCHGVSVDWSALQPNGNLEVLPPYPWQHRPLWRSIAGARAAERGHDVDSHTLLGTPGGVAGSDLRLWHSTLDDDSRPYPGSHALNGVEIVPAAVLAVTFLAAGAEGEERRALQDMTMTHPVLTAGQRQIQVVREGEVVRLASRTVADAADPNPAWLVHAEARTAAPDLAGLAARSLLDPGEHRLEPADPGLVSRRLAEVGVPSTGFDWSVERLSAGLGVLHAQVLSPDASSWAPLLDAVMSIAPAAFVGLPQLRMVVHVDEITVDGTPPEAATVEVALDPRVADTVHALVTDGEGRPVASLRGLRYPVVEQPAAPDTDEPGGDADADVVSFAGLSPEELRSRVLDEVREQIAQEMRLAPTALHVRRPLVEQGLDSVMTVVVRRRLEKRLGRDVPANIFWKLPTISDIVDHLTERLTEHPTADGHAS

CC(=O)SCCNC(=O)CCNC(=O)[C@H](O)C(C)(C)COP(=O)(O)OP(=O)(O)OC[C@H]1O[C@@H](n2cnc3c(N)ncnc32)[C@H](O)[C@@H]1OP(=O)(O)O [acetyl-CoA]
LC-MS detection of orsellinic acid product ([1]; starter unit, malonyl-CoA co-substrate): Trace amount of OSA was indeed produced when AviM was incubated with acetyl-CoA and malonyl-CoA

CC(C)(COP(=O)(O)OP(=O)(O)OC[C@H]1O[C@@H](n2cnc3c(N)ncnc32)[C@H](O)[C@@H]1OP(=O)(O)O)[C@@H](O)C(=O)NCCC(=O)NCCSC(=O)CC(=O)O [malonyl-CoA]
LC-MS detection of orsellinic acid product ([1]; extender unit, acetyl-CoA co-substrate): Trace amount of OSA was indeed produced when AviM was incubated with acetyl-CoA and malonyl-CoA

B1: AviM PT domain (product template domain of the orsellinic acid synthase AviM) (domain or fragment, Streptomyces viridochromogenes Tü57)
chain: DSHTLLGTPGGVAGSDLRLWHSTLDDDSRPYPGSHALNGVEIVPAAVLAVTFLAAGAEGEERRALQDMTMTHPVLTAGQRQIQVVREGEVVRLASRTVADAADPNPAWLVHAEARTAAPDLAGLAARSLLDPGEHRLEPADPGLVSRRLAEVGVPSTGFDWSVERLSAGLGVLHAQVLSPDASSWAPLLDAVMSIAPAAFVGLPQLRMVVHVDEITVDGTPPEAATVEVALDPRVADTVHALVTDGEGRPVASLRGLRYP
notes: AviM, orsellinic acid synthase (iterative type I PKS, KS-AT-PT-ACP) of Streptomyces viridochromogenes Tü57; excised PT domain cloned as an 816 bp NdeI/EcoRI fragment in pET28a; An 816 bp fragment codes for about 272 residues, more than the 260 of residues 915-1174; also called bacterial PT domain; source: E. coli BL21(DE3), purified (Nickel-NTA, gel filtration); not shown: His6, N-terminal, kept
stoichiometry N [2]: 2
